Data taken from patent publication US20110039762A1, “TARGETED ANTIMICROBIAL MOIETIES” (C3 JIAN, INC., priority 2009, published 2011).
Entries after “also recorded” stand apart in the source; their conditions may differ.

What follows are substances tested on microorganisms (e.g., bacteria, yeasts, fungi) (assay: Targeting peptide binding to target microorganisms (Table 3)). Conditions: microorganism(s) the targeting peptide binds; binding in aqueous buffers depending on peptide solubility, preferably 1x PBS.

Row | Substance | Target(s)
1 | PF-146 (GCGKRRIITKSASRDTR; Peptide with targeting and/or antimicrobial activity) | S. epidermidis and M. luteus and P. aeruginosa and C. albicans and MRSA and C. jeikeium
2 | PF-147 (RRPRRRRSGHGQSASAA; Peptide with targeting and/or antimicrobial activity) | S. epidermidis and M. luteus and MRSA
3 | PF-150 (EIQAKGTG; Peptide with targeting and/or antimicrobial activity) | S. epidermidis and MRSA
4 | PF-151 (EEYPARVPLSGEDVTEARRH; Peptide with targeting and/or antimicrobial activity) | S. epidermidis and MRSA and E. faecalis and C. jeikeium
5 | PF-152 (VGYFIWKDSHSRKG; Peptide with targeting and/or antimicrobial activity) | S. epidermidis and C. albicans and MRSA and E. faecalis and C. jeikeium
6 | PF-154 (GIKKSKHPSTDDYVVKTTIDSL; Peptide with targeting and/or antimicrobial activity) | S. mutans
7 | PF-155 (GRYGDDSKERQGRAQ; Peptide with targeting and/or antimicrobial activity) | C. jeikeium
8 | PF-158 (VRLESRPADLPE; Peptide with targeting and/or antimicrobial activity) | S. epidermidis
9 | PF-159 (TMAFVEKAQLRVPVGDDLPV; Peptide with targeting and/or antimicrobial activity) | S. epidermidis
10 | PF-160 (SFHASLTKNEKPIKSTG; Peptide with targeting and/or antimicrobial activity) | S. epidermidis
11 | PF-161 (RGRALASTATTRPARRRR; Peptide with targeting and/or antimicrobial activity) | S. epidermidis; also recorded: M. luteus; also recorded: E. coli; also recorded: C. jejuni
12 | PF-162 (GIRRLHSVENLNREISHRMAGLR; Peptide with targeting and/or antimicrobial activity) | S. epidermidis and MRSA
13 | PF-163 (TSWLRAAERQEIGEPTKTFGEKTTSL; Peptide with targeting and/or antimicrobial activity) | S. epidermidis
14 | PF-165 (GPVSVVASLRRGTTVQRHSQNNHNKGKP; Peptide with targeting and/or antimicrobial activity) | MRSA and C. jejuni
15 | PF-166 (SKAVSRKRSI; Peptide with targeting and/or antimicrobial activity) | E. coli; also recorded: C. jeikeium
16 | PF-169 (APGSAADSPRSRADD; Peptide with targeting and/or antimicrobial activity) | S. epidermidis; also recorded: E. coli; also recorded: C. albicans; also recorded: E. faecalis; also recorded: C. jeikeium
17 | PF-172 (LTGVRRPWRAPWAGTSGWALR; Peptide with targeting and/or antimicrobial activity) | S. epidermidis and M. luteus and E. coli and P. aeruginosa and MRSA and E. faecalis and C. jejuni
18 | PF-174 (RGGDSPARRRPGLAGPGGPG; Peptide with targeting and/or antimicrobial activity) | S. epidermidis; also recorded: P. aeruginosa; also recorded: C. jeikeium
19 | PF-177 (VTSEPGIAHDIRLLPRAAAFR; Peptide with targeting and/or antimicrobial activity) | M. luteus and MRSA and E. faecalis and C. jeikeium

Row | Substance | Target(s)
20 | PF-181 (GIAPRRNEWGAVGGR; Peptide with targeting and/or antimicrobial activity) | S. epidermidis and M. luteus and E. coli and MRSA and E. faecalis and C. jeikeium
21 | PF-182 (LPATRDKTRVPASVAGAP; Peptide with targeting and/or antimicrobial activity) | S. epidermidis; also recorded: M. luteus; also recorded: E. coli; also recorded: E. faecalis; also recorded: C. jeikeium
22 | PF-183 (KPGISVENRQ; Peptide with targeting and/or antimicrobial activity) | S. epidermidis and M. luteus and E. coli and C. albicans and MRSA and E. faecalis and C. jeikeium
23 | PF-184 (LIADRHIRA; Peptide with targeting and/or antimicrobial activity) | S. epidermidis and M. luteus and E. coli and P. aeruginosa and C. albicans and MRSA and C. jeikeium
24 | PF-185 (RPAQARQGPGGLIADRHIRA; Peptide with targeting and/or antimicrobial activity) | E. coli; also recorded: P. aeruginosa
25 | PF-187 (EIQKIAKGVSGQVYGPSRQITISKKR; Peptide with targeting and/or antimicrobial activity) | S. epidermidis and M. luteus and E. coli and MRSA
26 | PF-189 (GNLTRSREAARATQ; Peptide with targeting and/or antimicrobial activity) | S. epidermidis and M. luteus and C. albicans and MRSA and E. faecalis and C. jejuni
27 | PF-193 (PPHCPPGHAKKGWC; Peptide with targeting and/or antimicrobial activity) | S. epidermidis and M. luteus and E. coli and MRSA and E. faecalis and C. jejuni
28 | PF-194 (MKGNKLATAHEQPVKNSAPPL; Peptide with targeting and/or antimicrobial activity) | C. jeikeium
29 | PF-195 (EMAEGSADDRLRKTPRDC; Peptide with targeting and/or antimicrobial activity) | S. epidermidis; also recorded: M. luteus; also recorded: E. faecalis; also recorded: C. jeikeium
30 | PF-197 (CNALLRRGHPPSAL; Peptide with targeting and/or antimicrobial activity) | S. epidermidis; also recorded: M. luteus; also recorded: C. albicans; also recorded: E. faecalis; also recorded: C. jejuni
31 | PF-200 (GIELKSLIMAQIERWRQA; Peptide with targeting and/or antimicrobial activity) | S. epidermidis and M. luteus and MRSA and E. faecalis and C. jeikeium
32 | PF-201 (GCRPASLSDADPDGR; Peptide with targeting and/or antimicrobial activity) | S. epidermidis; also recorded: M. luteus; also recorded: E. coli; also recorded: C. albicans; also recorded: E. faecalis; also recorded: C. jeikeium; also recorded: C. jejuni
33 | PF-202 (ALNRASLRLALGE; Peptide with targeting and/or antimicrobial activity) | S. epidermidis and M. luteus and E. coli and MRSA and E. faecalis and C. jeikeium and C. jejuni
34 | PF-206 (KLRSASKKSLQEKSCGIMPEKPAG; Peptide with targeting and/or antimicrobial activity) | M. luteus; also recorded: C. albicans; also recorded: C. jeikeium; also recorded: C. jejuni
35 | PF-207 (AAGCRDLGSLSSLVTNPS; Peptide with targeting and/or antimicrobial activity) | M. luteus; also recorded: C. jeikeium
36 | PF-210 (EREDGCDAMPLP; Peptide with targeting and/or antimicrobial activity) | S. epidermidis and P. aeruginosa and C. albicans and MRSA and E. faecalis and C. jeikeium and C. jejuni
37 | PF-213 (MTTGVDFIIEKV; Peptide with targeting and/or antimicrobial activity) | S. epidermidis
